In article PMC2527972 (Science (New York, N.Y.), 2008):

Target: T1, MetNI (Escherichia coli, UniProt P30750)
T1 sequence (P30750 1-343): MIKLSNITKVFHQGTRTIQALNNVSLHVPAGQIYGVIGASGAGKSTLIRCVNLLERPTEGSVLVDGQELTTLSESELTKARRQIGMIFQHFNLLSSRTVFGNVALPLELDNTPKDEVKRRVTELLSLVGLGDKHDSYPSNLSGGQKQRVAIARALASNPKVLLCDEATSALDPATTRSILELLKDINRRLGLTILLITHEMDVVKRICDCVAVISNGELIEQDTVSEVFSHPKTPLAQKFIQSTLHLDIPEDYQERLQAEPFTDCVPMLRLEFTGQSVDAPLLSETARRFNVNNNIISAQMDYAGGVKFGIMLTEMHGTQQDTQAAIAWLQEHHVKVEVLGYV
T1 sequence (P31547 1-217 partner): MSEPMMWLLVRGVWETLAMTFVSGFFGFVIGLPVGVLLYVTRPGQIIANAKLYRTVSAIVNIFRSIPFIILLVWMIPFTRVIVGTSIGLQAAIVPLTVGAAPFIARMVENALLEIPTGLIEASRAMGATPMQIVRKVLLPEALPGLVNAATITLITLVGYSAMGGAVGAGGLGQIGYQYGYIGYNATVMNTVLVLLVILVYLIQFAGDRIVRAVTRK
Assay: ATPase activity, phosphate production assay
Format: biochemical

CSCC[C@H](N)C(=O)O [L-methionine]
IC50: ~30 µM
